Assay results taken from patent US9238039B2, “Pyrazolo[1,5-A]pyrimidines for antiviral treatment” (Gilead Sciences, Inc., priority 2010, dated 2016).

Tested on: RSV strain A2
Test: RSV antiviral cytoprotection assay in Hep2 cells (96-well and 384-well format, Cell TiterGlo read-out)
Assay type: cell-based, Respiratory Syncytial Virus (RSV)
Conditions: human respiratory syncytial virus; for inhibition at 0.5 µM: HEp-2, 0.5 uM, RSV-induced cytopathic effect in Hep2 cells, calculated from fitted dose response curve, normalized to 0% and 100%; for EC50: HEp-2, RSV-induced cytopathic effects, Hep2 cells, class symbols

| SMILES | inhibition at 0.5 µM [%] | EC50 [nM] |
| --- | --- | --- |
| Cc1ccc(NS(C)(=O)=O)c(C(=O)N2CCCC[C@H]2c2cc3nc(N4CCC4)c(C)cn3n2)c1 [Compound 189] | 100 | 0.1 to 100 |
| Cc1ccc(NS(C)(=O)=O)c(C(=O)N2CCCC[C@H]2c2cc3nc(N4CC[C@H](N)C4)c(C)cn3n2)c1 [Compound 190] | 100 | 0.1 to 100 |
| Cc1ccc(NS(C)(=O)=O)c(C(=O)N2CCCC[C@H]2c2cc3nc(N4CC(N)C4)c(C)cn3n2)c1 [Compound 191] | 100 | 0.1 to 100 |
| Cc1cn2nc([C@@H]3CCCCN3C(=O)c3cc(N)ccc3NS(C)(=O)=O)cc2nc1N1CC(O)C1 [Compound 192] | 100 | 0.1 to 100 |
| CS(=O)(=O)Nc1ccc(N)cc1C(=O)N1CCCC[C@H]1c1cc2nc(N3CCC3)cc(N3CCOCC3)n2n1 [Compound 193] | 100 | 0.1 to 100 |
| Cc1ccc(NS(C)(=O)=O)c(C(=O)N2CCCC[C@H]2c2cc3nc(N4CCC4)cc(N4CCOCC4)n3n2)c1 [Compound 194] | 100 | 0.1 to 100 |
| Cc1cn2nc([C@@H]3CCCCN3C(=O)c3cc(Cl)ccc3NS(C)(=O)=O)cc2nc1N1C[C@H](O)[C@@H](O)C1 [Compound 197] | 100 | 0.1 to 100 |
| Cc1cn2nc([C@@H]3CCCCN3C(=O)c3cc(Cl)ccc3NS(C)(=O)=O)cc2nc1N1CC[C@@H](CO)C1 [Compound 198] | 95 | 0.1 to 100 |
| Cc1cn2nc([C@@H]3CCCCN3C(=O)c3cc(Cl)ccc3NS(C)(=O)=O)cc2nc1N1CCC[C@H]1C#N [Compound 200] | 95 | 0.1 to 100 |
| Cc1cn2nc([C@@H]3CCCCN3C(=O)c3cc(Cl)ccc3NS(C)(=O)=O)cc2nc1N1C[C@@H](N)C2(CC2)C1 [Compound 201] | 64 | 101 to 1000 |
| Cc1cn2nc([C@@H]3CCCCN3C(=O)c3cc(Cl)ccc3NS(C)(=O)=O)cc2nc1N1CC[C@H](N)C1 [Compound 202] | 100 | 0.1 to 100 |
| Cc1cn2nc([C@@H]3CCCCN3C(=O)c3cc(Cl)ccc3NS(C)(=O)=O)cc2nc1N1CCC[C@H]1CN [Compound 203] | 86 | 101 to 1000 |
| Cc1cn2nc([C@@H]3CCCCN3C(=O)c3cc(Cl)ccc3NS(C)(=O)=O)cc2nc1N1CC[C@@H](C)C1 [Compound 204] | 98 | 0.1 to 100 |
| Cc1cn2nc([C@@H]3CCCCN3C(=O)c3cc(Cl)ccc3NS(C)(=O)=O)cc2nc1N1CCC(C)(C#N)C1 (some centres unmarked) [Compound 205] | 91 | 0.1 to 100 |
| Cc1cn2nc([C@@H]3CCCCN3C(=O)c3cc(Cl)ccc3NS(C)(=O)=O)cc2nc1N1CCC[C@H]1CN1CCCC1 [Compound 206] | 99 | 0.1 to 100 |
| Cc1cn2nc([C@@H]3CCCCN3C(=O)c3cc(Cl)ccc3NS(C)(=O)=O)cc2nc1N1CCC(Oc2ccccc2)C1 (some centres unmarked) [Compound 208] | 95 | 0.1 to 100 |
| Cc1cn2nc([C@@H]3CCCCN3C(=O)c3cc(Cl)ccc3NS(C)(=O)=O)cc2nc1N1CCC(c2ccccn2)C1 (some centres unmarked) [Compound 209] | 88 | 101 to 1000 |
| Cc1cn2nc([C@@H]3CCCCN3C(=O)c3cc(Cl)ccc3NS(C)(=O)=O)cc2nc1N1CCC[C@H]1CO [Compound 210] | 81 | 101 to 1000 |
| Cc1cn2nc([C@@H]3CCCCN3C(=O)c3cc(Cl)ccc3NS(C)(=O)=O)cc2nc1N1C[C@@H](N)C[C@H]1CO [Compound 211] | 100 | 0.1 to 100 |
| Cc1cn2nc([C@@H]3CCCCN3C(=O)c3cc(Cl)ccc3NS(C)(=O)=O)cc2nc1N1CC(Oc2ccccn2)C1 [Compound 212] | 88 | 101 to 1000 |
| Cc1cn2nc([C@@H]3CCCCN3C(=O)c3cc(Cl)ccc3NS(C)(=O)=O)cc2nc1N1CC(CO)C1 [Compound 213] | 99 | 0.1 to 100 |
| Cc1cn2nc([C@@H]3CCCCN3C(=O)c3cc(Cl)ccc3NS(C)(=O)=O)cc2nc1N1CCC(C#N)CC1 [Compound 215] | 99 | 0.1 to 100 |
